US20090221538A1, “METHODS OF TREATING MULTIPLE SCLEROSIS BY ADMINISTERING PULSE DOSE CALCITRIOL” (priority 2008, published 2009)
Several values for one entry are separate records, joined by “and”; a condition that tells them apart may be missing. Equal values may be shown once. Marks after values point to notes of the source that are not given here.

Legend:
[1] = system: B10.PL mice with acute EAE; experiment: Treatment of MBP-induced acute EAE in B10.PL mice, daily clinical EAE disability score; format: in vivo; design: key to cumulative disability (sum of daily disability scores; mean) / Cumulative disability / EAE severity (initial) / Remission (minimum) / EAE severity (final) / EAE severity (decrease): EAE score 0 = normal to 5 = moribund; cumulative = sum of daily scores; details: for EAE severity (initial): score at randomization
Experimental: Breeding pairs of B10.PL-H2^uH2-T18^a/(73NS)/SnJ (hereafter B10.PL) mice were purchased from the Jackson Laboratory (Bar Harbor, Me.). The experimental B10.PL mice were either bred in the pathogen-free mouse colony at the University of Wisconsin Department of Biochemistry, or purchased from the Jackson Laboratory. Mice were housed at 23° C. with 40-60% humidity, 12 hr light-dark cycles, and ad libidum access to water. Unless stated otherwise, the mice were fed Lab Diet #5008 (PMI Nutrition International, Inc., Brentwood, Mo.) containing 0.33 μg/d vitamin D3 and 1% calcium. Experiments used male and female mice aged 6-8 wks (age- and sex-matched within experiments). The University of Wisconsin College of Agricultural and Life Sciences Institutional Animal Care and Use Committee approved all of the experimental protocols.
Bovine myelin basic protein (Sigma Chemical Co., St. Louis, Mo.) was dissolved at 2 mg/mL in 0.1 N acetic acid and emulsified with Complete Freund's adjuvant containing heat-killed Mycobacterium tuberculosis H37 Ra solution (Difco). Each mouse was injected subcutaneously with 0.1 mL emulsion in each hind flank (400 micrograms of MBP per mouse). On the day of immunization and again 2 days later, 200 nanograms of pertussis toxin was injected into the peritoneum. Thereafter, clinical EAE signs were scored daily as follows: 0, normal; 1, limp tail; 1.5, partial paralysis of one hind limb; 2, partial paralysis of both hind limbs; 2.5 partial paralysis of one hind limb and complete paralysis of one hind limb; 3, paralysis of both hind limbs; 4, hind and fore limb paralysis; 5, moribund.
The vitamin D3 and 1,25-(OH)2D3 were obtained from Sigma Chemical Co. The vitamin D3 was dissolved in safflower oil and stored in the dark at 5° C. The 1,25-(OH)2D3 was dissolved in 100% ethanol (1 mg/mL) and stored in the dark under nitrogen gas at −20° C. The concentration of 1,25-(OH)2D3 was determined by spectral analysis. Animals with stage 2.3±0.3 were randomized into treatment groups. The details of the treatments are given in the figure legends and table footnotes. The synthetic diet used in some experiments was formulated to contain all essential nutrients except vitamin D3 and was prepared exactly as we described (Spach and Hayes, 2005, J. Immunol. 175:4119-4126). For experiments using supplementary vitamin D3, the placebo group was fed the synthetic diet ad libidum without added vitamin D3, whereas the vitamin D3-supplemented group was fed the synthetic diet ad libidum with vitamin D3 added in an amount to provide 1 μg/d, calculated based on a daily measured consumption of 4.0 g dry weight of diet per mouse. Fresh synthetic diet was provided three times per week. At several times during the study, mice were weighed and blood samples were obtained from the tail vein. At the conclusion of the study, the mice were euthanized, a blood sample was obtained, perfusion was done, and the spinal cords and optic nerves were removed. The spinal cords were flash frozen with liquid nitrogen and stored at −70° C. prior to 1,25-(OH)2D3 extraction. Alternatively, the spinal cords were divided into 6 equal sections, aligned vertically, snap frozen in O.C.T. compound (Sakura Finetek USA, Torrance, Calif.) and stored at −70° C. for histopathology. The blood was clotted, centrifuged, and the decanted serum was frozen at −70° C. prior to analysis.
Individual mice were analyzed and the mean and SD were calculated for each group of mice. Experiments were repeated at least once. The significance of differences between the group means was determined using the Mann-Whitney test (n≦16), Student's t-test (n>16), or Chi-squared test (binomial data); p<0.05 was considered significant.

MS = details: daily calcitriol treatments, cited from earlier work
[2] = female B10.PL mice, chow-fed, 20 ng pulse dose, 14 days post treatment
[3] = female B10.PL mice, chow-fed, 200 ng injected once each week, 21 days
[4] = female B10.PL mice, chow-fed, 200 ng injected once, 21 days post treatment
[5] = female B10.PL mice, chow-fed, 200 ng pulse dose, 14 days post treatment
[6] = female B10.PL mice, chow-fed, 400 ng pulse dose, 14 days post treatment
[7] = female and male B10.PL mice, chow-fed, 0.5 (female) or 1.0 (male) nmol injected once, 14 days post treatment
[8] = male B10.PL mice, chow-fed, 20 ng pulse dose, 14 days post treatment
[9] = male B10.PL mice, chow-fed, 40 ng pulse dose, 14 days post treatment
[10] = male B10.PL mice, chow-fed, 200 ng pulse dose, 14 days post treatment
[11] = male B10.PL mice, chow-fed, 400 ng pulse dose, 14 days post treatment
[12] = male and female B10.PL mice, 200 ng 1,25-(OH)2D3 injected, 5 μg vitamin D3 gavage 24 hr later, diet 1 μg/d vitamin D3
[13] = methyl-prednisolone 200 μg/d followed by one 1,25-(OH)2D3 treatment, 28-day observation period

For `C=C1/C(=C\C=C2/CCC[C@]3(C)[C@@H]([C@H](C)CCCC(C)(C)O)CC[C@@H]23)C[C@@H](O)C[C@@H]1O` [1,25-(OH)2D3, 1,25-dihydroxy vitamin D3], the “relative potency for the treatment of acute EAE disability” value ([1]; 0.5 nmol (females) or 1.0 nmol (males), compared with methyl-prednisolone) was “far superior to methyl-prednisolone”, the “reduction of cumulative disability” value ([1]; 200 ng 1,25-(OH)2D3 pulse dose plus vitamin D3 (serum 25-(OH)D3 82±27), 42 day observation period) was 48% and the “cumulative disability lower than the placebo group” value ([1]; chow-fed mice with acute EAE, weekly injections of 200 ng) was 43%. The “EAE severity (decrease)” value [1, 2] was 0.5 ± 1.0, the “EAE severity (final)” value [1, 2] was 1.6 ± 1.0 and the “Remission (%)” value [1, 2] was 75%. For the same compound, the “Remission (days in)” value [1, 2] was 8.0 ± 6.3 days, the “Remission (days to)” value [1, 2] was 2.0 ± 0.0 days and the “EAE severity (initial)” value ([1]; female B10.PL mice, chow-fed, 20 ng pulse dose) was 2.1 ± 0.1. The Cumulative disability ([1]; female B10.PL mice, chow-fed, 20 ng pulse dose, sum of daily scores for 14 days) was 22.1 ± 9.0, the “EAE severity (peak)” value [1, 3] was 2.4 ± 0.4 and the “Remission” value [1, 3] was 15.7 ± 3.4 days. For the same compound, the “Remission (%)” value [1, 3] was 100%, the “Remission (minimum)” value [1, 3] was 1.0 ± 0.0 and the “EAE severity (initial)” value ([1]; female B10.PL mice, chow-fed, 200 ng injected once each week) was 2.3 ± 0.5. For the same compound, the Cumulative disability ([1]; female B10.PL mice, chow-fed, 200 ng injected once each week, sum of daily scores for 21 days) was 31.6 ± 5.1, the “EAE severity (peak)” value [1, 4] was 2.7 ± 0.4 and the “Remission” value [1, 4] was 13.4 ± 3.9 days. For the same compound, the “Remission (minimum)” value [1, 4] was 1.0 ± 0.4, the “Remission (%)” value ([1]; female B10.PL mice, chow-fed, 200 ng injected once, 21 days post treatment, remission = score ≦1.5 for two or more consecutive days) was 100% and the “EAE severity (initial)” value ([1]; female B10.PL mice, chow-fed, 200 ng injected once) was 2.6 ± 0.4. The Cumulative disability ([1]; female B10.PL mice, chow-fed, 200 ng injected once, sum of daily clinical scores for 21 days) was 32.9 ± 9.3, the “EAE severity (decrease)” value [1, 5] was 1.6 ± 0.4 and the “EAE severity (final)” value [1, 5] was 1.0 ± 0.4. The “Remission (%)” value [1, 5] was 100%, the “Remission (days in)” value [1, 5] was 9.2 ± 2.5 days and the “Remission (days to)” value [1, 5] was 5.8 ± 2.5 days. The “EAE severity (initial)” value ([1]; female B10.PL mice, chow-fed, 200 ng pulse dose) was 2.6 ± 0.4, the Cumulative disability ([1]; female B10.PL mice, chow-fed, 200 ng pulse dose, sum of daily scores for 14 days) was 21.8 ± 4.6 and the “EAE severity (decrease)” value [1, 6] was 1.2 ± 0.2. The “EAE severity (final)” value [1, 6] was 1.0 ± 0.0, the “Remission (%)” value [1, 6] was 100% and the “Remission (days in)” value [1, 6] was 9.6 ± 3.0 days. The “Remission (days to)” value [1, 6] was 6.2 ± 3.3 days, the “EAE severity (initial)” value ([1]; female B10.PL mice, chow-fed, 400 ng pulse dose) was 2.2 ± 0.2 and the Cumulative disability ([1]; female B10.PL mice, chow-fed, 400 ng pulse dose, sum of daily scores for 14 days) was 20.6 ± 5.2. The Cumulative disability [1, 7] was 19.7 ± 4.4, the “EAE severity (decrease)” value [1, 7] was 1.2 ± 0.6 and the “Remission (%)” value [1, 7] was 92%. For the same compound, the “Remission (days in)” value [1, 7] was 10.0 ± 2.2 days, the “Remission (days to)” value [1, 7] was 4.9 ± 2.2 days and the “EAE severity (initial)” value ([1]; female and male B10.PL mice, chow-fed, 0.5 (female) or 1.0 (male) nmol of steroid compound injected once) was 2.3 ± 0.4. The “effectiveness for the treatment of EAE” value ([1]; female mice, chow-fed, 20 ng pulse dose) was “partially effective”, the “remission lasted an average of, before a relapse occurred” value ([1]; female mice, chow-fed, 200 ng pulse dose) was 14 days and the “mice that achieved a remission (EAE≦1.5 for at least two consecutive days)” value ([1]; female mice, chow-fed, 200 ng pulse dose, within 6 days) was 100%. For the same compound, the “EAE severity (decrease)” value [1, 8] was 0.7 ± 0.4, the “EAE severity (final)” value [1, 8] was 1.4 ± 0.5 and the “Remission (%)” value [1, 8] was 80%. For the same compound, the “Remission (days in)” value [1, 8] was 6.6 ± 4.6 days, the “Remission (days to)” value [1, 8] was 6.3 ± 2.2 days and the “EAE severity (initial)” value ([1]; male B10.PL mice, chow-fed, 20 ng pulse dose) was 2.1 ± 0.2. For the same compound, the Cumulative disability ([1]; male B10.PL mice, chow-fed, 20 ng pulse dose, sum of daily scores for 14 days) was 24.2 ± 6.2, the “EAE severity (decrease)” value [1, 9] was 0.5 ± 1.2 and the “EAE severity (final)” value [1, 9] was 1.7 ± 1.0. For the same compound, the “Remission (%)” value [1, 9] was 80%, the “Remission (days in)” value [1, 9] was 8.0 ± 4.6 days and the “Remission (days to)” value [1, 9] was 4.5 ± 1.7 days. The “EAE severity (initial)” value ([1]; male B10.PL mice, chow-fed, 40 ng pulse dose) was 2.2 ± 0.4, the Cumulative disability ([1]; male B10.PL mice, chow-fed, 40 ng pulse dose, sum of daily scores for 14 days) was 25.0 ± 9.0 and the “EAE severity (decrease)” value [1, 10] was 1.0 ± 0.4. For the same compound, the “EAE severity (final)” value [1, 10] was 1.3 ± 0.4, the “Remission (%)” value [1, 10] was 100% and the “Remission (days in)” value [1, 10] was 11.9 ± 2.0 days. For the same compound, the “Remission (days to)” value [1, 10] was 6.3 ± 2.4 days, the “EAE severity (initial)” value ([1]; male B10.PL mice, chow-fed, 200 ng pulse dose) was 2.3 ± 0.3 and the Cumulative disability ([1]; male B10.PL mice, chow-fed, 200 ng pulse dose, sum of daily scores for 14 days) was 22.1 ± 3.5. The “EAE severity (decrease)” value [1, 11] was 1.2 ± 0.2, the “EAE severity (final)” value [1, 11] was 0.8 ± 0.3 and the “Remission (%)” value [1, 11] was 86%. The “Remission (days in)” value [1, 11] was 11.0 ± 1.4 days, the “Remission (days to)” value [1, 11] was 4.2 ± 1.7 days and the “EAE severity (initial)” value ([1]; male B10.PL mice, chow-fed, 400 ng pulse dose) was 2.1 ± 0.4. The Cumulative disability ([1]; male B10.PL mice, chow-fed, 400 ng pulse dose, sum of daily scores for 14 days) was 16.9 ± 2.5, the “Remission” value [1, 12] was 36 ± 6 days and the “Remission (%)” value [1, 12] was 100* %. For the same compound, the mortality [1, 12] was 0%, the Cumulative disability ([1]; male and female B10.PL mice, 200 ng 1,25-(OH)2D3 injected, 5 μg vitamin D3 gavage, diet 1 μg/d vitamin D3, sum of daily scores for first 42 days post treatment) was 50 ± 14 and the Cumulative disability [1, 13] was 36±10. For the same compound, the “reduction of cumulative disability vs placebo group” value [1, 13] was 42%, the “amelioration of EAE disease” value ([1]; mice with normal serum 25-(OH)D3 levels, 200 ng pulse dose in females and 400 ng pulse dose in males) was “optimally ameliorated EAE disease” and the “mice that did not relapse” value ([1]; one 1,25-(OH)2D3 treatment (females 200 ng; males 400 ng) after withdrawal of 200 μg/d methyl-prednisolone, 28-day observation period) was 4 of 6. For the same compound, the “days in remission before relapse (remaining two mice)” value ([1]; one 1,25-(OH)2D3 treatment (females 200 ng; males 400 ng) after withdrawal of methyl-prednisolone) was 14 days and 23 days, the MS progression (MS) was “completely inhibited” and the “patients who withdrew from the trial with symptomatic hypercalcemia” value (MS) was 2 of the 15. The “MS relapse rate (average)” value (MS; decreased from 1.0/yr) was 0.2 /yr.
